The assay concerns Malassezia furfur (ATCC 14521). In words: Minimum inhibitory concentration (MIC) of ZPT in mDixon agar, with and without augmenting material. It counts as cell-based. From the text:
In some cases, materials can augment the activity of antifungal actives. As used herein, the term augmentation is intended to mean enhancement of the antifungal activity of a ZPT-containing composition by the augmenting material to an extent sufficient to permit the use of a lower amount of ZPT without reducing the antifungal inhibition provided by the composition, as compared to the antifungal inhibition that is provided by an otherwise-identical ZPT-containing composition that is free of the augmenting material. Augmenting agents are generally specific to the material being augmented, forming a unique combination and often because there is a specific chemical or biological mechanism required to achieve the augmentation effect. ^1 The Minimum Inhibitory Concentration is indicative of anti-fungal efficacy. Generally, the lower the value of the composition, the better its anti-fungal efficacy, due to increased inherent ability of the anti-dandruff agent to inhibit the growth of microorganisms.
An “augmentation factor” is defined, which is the ratio of the MIC with and without an augmenting agent (at a specified concentration): [formula]
Dilutions of solubilized anti-microbial active were then added to test tubes containing molten mDixon agar. M. furfur inoculum was added to each tube of molten agar, the tube vortexed, and the contents poured into separate sterile petri dishes. […] The lowest tested dilution of anti-microbial active that yields no growth is defined as the Minimal Inhibitory Concentration (MIC).
1) Malassezia furfur was grown in a 250 ml Erlenmeyer flask containing 100 mil “mDIXON” medium at 320 rpm and 30° C. until turbid.
2) Selected dilutions were prepared using an appropriate dilution series, of the anti-microbial active or combination in solvent, which allowed the sample active to be solubilized prior to addition to the final test agar. For each concentration of the ZPT samples, the solvent was “DMSO”; for other samples, the solvent was water or “DMSO” or other suitable solvent.
3) 0.25 ml dilutions of anti-microbial active were added to test tubes containing 9.5 ml molten “mDIXON” agar (held at 45° C. in a water bath).
4) 0.25 M. furfur inoculum (adjusted to 5×10^5 cfu/ml by direct count) was added to each test tube of molten agar.
5) Each tube was vortexed, and the contents poured into separate petri dishes.
6) After the agar solidified, the plates inverted and incubated at 30° for 5 days.
7) The plates were then observed for visible M. furfur growth.

This note sets out measurements from US20040213751A1, “Augmentation of pyrithione activity or a polyvalent metal salt of pyrithione activity by zinc-containing layered material” (priority 2003, published 2004).

With `[O-]n1ccccc1=S.[O-]n1ccccc1=S.[Zn+2]` [ZPT, zinc salt of 1-hydroxy-2-pyridinethione], for the setting “Malassezia furfur, mDixon agar, 30° for 5 days, no augmenting material”, the MIC of ZPT alone came out at 8 ppm.
In the case of Zinc Stearate, the “Augmentation Benefit” value (5 ppm augmenting material, effective agent has augmentation factor greater than 1) is “No”. Further, under “Malassezia furfur, mDixon agar, 30° for 5 days, 5 ppm of the named augmenting material”, the MIC of ZPT with 5 ppm augmenting material was 8 ppm. The “Augmentation Factor” value (ratio of the MIC of ZPT without and with 5 ppm augmenting material) was determined as 1.0.
